Experiment: Inhibition of full-length (FL)-PRMT5:MEP50 enzyme complex (unknown origin) expressed in Sf21 cells assessed as reduction in methylation activity using the N-terminus of H4 histone derived substrate peptide H4R3(Me1) by PRMT5:MEP50 biochemical assay
Parameters: species or system Homo sapiens

IC50 | SMILES
1 µM | Nc1ncnc2c1nc1n2[C@@H]2O[C@@H]([C@@H](O)[C@H]2O)[C@@H](c2ccc(Cl)cc2)OCCO1
5.7 µM | Nc1ncnc2c1nc1n2[C@@H]2O[C@@H]([C@@H](O)[C@H]2O)[C@@H](c2ccc(F)c(F)c2)CCN1
